This passage reports DC50 results from patent US20230295197A1, “STAT5 and STAT6 Degraders and Uses Thereof” (REGENTS OF THE UNIVERSITY OF MICHICAN, priority 2022, published 2023).

Molecules are shown by their SMILES.

The assay deals with T1, STAT6 (Homo sapiens, UniProt P42226).
T1 construct: endogenous in cells; host or cells: MOLM-16, KU-812, SKNO1, MB231, L1236
T1 sequence (P42226 1-847): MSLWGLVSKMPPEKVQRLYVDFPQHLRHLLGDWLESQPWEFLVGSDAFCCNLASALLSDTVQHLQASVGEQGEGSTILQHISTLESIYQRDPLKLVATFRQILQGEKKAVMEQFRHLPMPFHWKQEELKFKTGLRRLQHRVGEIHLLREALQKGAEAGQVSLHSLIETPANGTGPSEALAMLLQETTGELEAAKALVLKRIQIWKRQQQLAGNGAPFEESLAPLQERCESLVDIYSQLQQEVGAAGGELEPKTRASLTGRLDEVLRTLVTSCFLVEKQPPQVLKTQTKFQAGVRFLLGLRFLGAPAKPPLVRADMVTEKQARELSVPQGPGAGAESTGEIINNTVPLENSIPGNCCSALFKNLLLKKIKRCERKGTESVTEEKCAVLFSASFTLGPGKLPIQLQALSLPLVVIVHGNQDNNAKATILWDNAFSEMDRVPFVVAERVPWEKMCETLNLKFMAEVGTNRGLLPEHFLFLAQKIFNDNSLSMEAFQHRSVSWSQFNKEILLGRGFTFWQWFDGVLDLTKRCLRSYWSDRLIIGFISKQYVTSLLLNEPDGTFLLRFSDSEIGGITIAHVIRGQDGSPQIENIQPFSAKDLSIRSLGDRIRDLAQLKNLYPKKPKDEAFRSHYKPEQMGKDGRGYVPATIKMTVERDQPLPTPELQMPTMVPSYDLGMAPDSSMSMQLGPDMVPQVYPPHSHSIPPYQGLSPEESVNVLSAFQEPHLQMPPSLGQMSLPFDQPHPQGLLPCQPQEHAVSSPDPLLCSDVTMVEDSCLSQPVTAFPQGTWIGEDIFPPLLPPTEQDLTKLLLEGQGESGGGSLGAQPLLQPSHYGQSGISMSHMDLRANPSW
Briefly: Immunoblotting (Western blot) analysis of STAT6 degradation efficiency of degraders in treated cells. It is filed as cell-based. The following applies: MOLM-16 cells, class symbols, read-out: DC50 S6 MOLM-16. In short, it runs like this:
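Read-out: fluorescent IRDye 680RD/800CW secondaries imaged on an infrared scanner, with band intensities quantified by densitometry and GAPDH serving as loading control. Samples were RIPA lysates, BCA-normalised, from ~1 million treated cells.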
A general note: In western blotting, separated proteins are transferred to a membrane and probed.
With `CC(C)(C)[C@H](NC(=O)c1cc2cc(C(F)(F)P(=O)(O)O)ccc2s1)C(=O)N1Cc2cc(OCC(=O)NCCC#Cc3cccc4c3C(=O)N(C3CCC(=O)NC3=O)C4=O)ccc2C[C@H]1C(=O)N1CCO[C@H](c2ccccc2)C1` (stereo partly drawn) [Compound 537, ((2-(((2S)-1-((3S)-7-(2-((4-(2-(2,6-dioxopiperidin-3-yl)-1,3-dioxoisoindolin-4-yl)but-3-yn-1-yl)amino)-2-oxoethoxy)-3-((R)-2-phenylmorpholine-4-carbonyl)-3,4-dihydroisoquinolin-2(1H)-yl)-3,3-dimethyl-1-oxobutan-2-yl)carbamoyl)benzo[b]thiophen-5-yl)difluoromethyl)phosphonic acid], the 50% degradation concentration (DC50) (commonly the concentration giving 50% degradation) is more than 10 µM.

As for `CC(C)(C)[C@H](NC(=O)c1cc2cc(C(F)(F)P(=O)(O)O)ccc2s1)C(=O)N1Cc2cc(OCC(=O)NCCC#Cc3ccc4c(c3)C(=O)N(C3CCC(=O)NC3=O)C4=O)ccc2C[C@H]1C(=O)N1CCO[C@H](c2ccccc2)C1` (stereo partly drawn) [Compound 538, ((2-(((2S)-1-((3S)-7-(2-((4-(2-(2,6-dioxopiperidin-3-yl)-1,3-dioxoisoindolin-5-yl)but-3-yn-1-yl)amino)-2-oxoethoxy)-3-((R)-2-phenylmorpholine-4-carbonyl)-3,4-dihydroisoquinolin-2(1H)-yl)-3,3-dimethyl-1-oxobutan-2-yl)carbamoyl)benzo[b]thiophen-5-yl)difluoromethyl)phosphonic acid], the DC50 was more than 10 µM.

Take `CC(C)(C)[C@H](NC(=O)c1cc2cc(C(F)(F)P(=O)(O)O)ccc2s1)C(=O)N1Cc2cc(OCC(=O)NCCCC#Cc3cccc4c3C(=O)N(C3CCC(=O)NC3=O)C4=O)ccc2C[C@H]1C(=O)N1CCO[C@H](c2ccccc2)C1` (stereo partly drawn) [Compound 539, ((2-(((2S)-1-((3S)-7-(2-((5-(2-(2,6-dioxopiperidin-3-yl)-1,3-dioxoisoindolin-4-yl)pent-4-yn-1-yl)amino)-2-oxoethoxy)-3-((R)-2-phenylmorpholine-4-carbonyl)-3,4-dihydroisoquinolin-2(1H)-yl)-3,3-dimethyl-1-oxobutan-2-yl)carbamoyl)benzo[b]thiophen-5-yl)difluoromethyl)phosphonic acid]: the DC50 is more than 10 µM.

For the compound `CC(C)(C)[C@H](NC(=O)c1cc2cc(C(F)(F)P(=O)(O)O)ccc2s1)C(=O)N1Cc2cc(OCC(=O)NCCCC#Cc3ccc4c(c3)C(=O)N(C3CCC(=O)NC3=O)C4=O)ccc2C[C@H]1C(=O)N1CCO[C@H](c2ccccc2)C1` (stereo partly drawn) [Compound 540, ((2-(((2S)-1-((3S)-7-(2-((5-(2-(2,6-dioxopiperidin-3-yl)-1,3-dioxoisoindolin-5-yl)pent-4-yn-1-yl)amino)-2-oxoethoxy)-3-((R)-2-phenylmorpholine-4-carbonyl)-3,4-dihydroisoquinolin-2(1H)-yl)-3,3-dimethyl-1-oxobutan-2-yl)carbamoyl)benzo[b]thiophen-5-yl)difluoromethyl)phosphonic acid], the 50% degradation concentration (DC50) is more than 10 µM.

On to `CC(C)(C)[C@H](NC(=O)c1cc2cc(C(F)(F)P(=O)(O)O)ccc2s1)C(=O)N1Cc2cc(OCC(=O)NCCCCC#Cc3cccc4c3C(=O)N(C3CCC(=O)NC3=O)C4=O)ccc2C[C@H]1C(=O)N1CCO[C@H](c2ccccc2)C1` (stereo partly drawn) [Compound 541, ((2-(((2S)-1-((3S)-7-(2-((6-(2-(2,6-dioxopiperidin-3-yl)-1,3-dioxoisoindolin-4-yl)hex-5-yn-1-yl)amino)-2-oxoethoxy)-3-((R)-2-phenylmorpholine-4-carbonyl)-3,4-dihydroisoquinolin-2(1H)-yl)-3,3-dimethyl-1-oxobutan-2-yl)carbamoyl)benzo[b]thiophen-5-yl)difluoromethyl)phosphonic acid], for which the 50% degradation concentration (DC50) is more than 10 µM.

Take `CC(C)(C)[C@H](NC(=O)c1cc2cc(C(F)(F)P(=O)(O)O)ccc2s1)C(=O)N1Cc2cc(OCC(=O)NCCCCC#Cc3ccc4c(c3)C(=O)N(C3CCC(=O)NC3=O)C4=O)ccc2C[C@H]1C(=O)N1CCO[C@H](c2ccccc2)C1` (stereo partly drawn) [Compound 542, ((2-(((2S)-1-((3S)-7-(2-((6-(2-(2,6-dioxopiperidin-3-yl)-1,3-dioxoisoindolin-5-yl)hex-5-yn-1-yl)amino)-2-oxoethoxy)-3-((R)-2-phenylmorpholine-4-carbonyl)-3,4-dihydroisoquinolin-2(1H)-yl)-3,3-dimethyl-1-oxobutan-2-yl)carbamoyl)benzo[b]thiophen-5-yl)difluoromethyl)phosphonic acid]: the 50% degradation concentration (DC50) was more than 10 µM.

Take `CC(C)(C)[C@H](NC(=O)c1cc2cc(C(F)(F)P(=O)(O)O)ccc2s1)C(=O)N1Cc2cc(OCC(=O)NCCCCCC#Cc3cccc4c3C(=O)N(C3CCC(=O)NC3=O)C4=O)ccc2C[C@H]1C(=O)N1CCO[C@H](c2ccccc2)C1` (stereo partly drawn) [Compound 543, ((2-(((2S)-1-((3S)-7-(2-((7-(2-(2,6-dioxopiperidin-3-yl)-1,3-dioxoisoindolin-4-yl)hept-6-yn-1-yl)amino)-2-oxoethoxy)-3-((R)-2-phenylmorpholine-4-carbonyl)-3,4-dihydroisoquinolin-2(1H)-yl)-3,3-dimethyl-1-oxobutan-2-yl)carbamoyl)benzo[b]thiophen-5-y)difluoromethyl)phosphonic acid]: the half-maximal degradation concentration (DC50) was more than 10 µM.

As for `CC(C)(C)[C@H](NC(=O)c1cc2cc(C(F)(F)P(=O)(O)O)ccc2s1)C(=O)N1Cc2cc(OCC(=O)NCCCCCC#Cc3ccc4c(c3)C(=O)N(C3CCC(=O)NC3=O)C4=O)ccc2C[C@H]1C(=O)N1CCO[C@H](c2ccccc2)C1` (stereo partly drawn) [Compound 544, ((2-(((2S)-1-((3S)-7-(2-((7-(2-(2,6-dioxopiperidin-3-yl)-1,3-dioxoisoindolin-5-yl)hept-6-yn-1-yl)amino)-2-oxoethoxy)-3-((R)-2-phenylmorpholine-4-carbonyl)-3,4-dihydroisoquinolin-2(1H)-yl)-3,3-dimethyl-1-oxobutan-2-yl)carbamoyl)benzo[b]thiophen-5-yl)difluoromethyl)phosphonic acid], the DC50 is more than 10 µM.

Consider `CC(C)(C)[C@H](NC(=O)c1cc2cc(C(F)(F)P(=O)(O)O)ccc2s1)C(=O)N1Cc2cc(OCC(=O)NCCCCCCCCC#Cc3cccc4c3C(=O)N(C3CCC(=O)NC3=O)C4=O)ccc2C[C@H]1C(=O)N1CCO[C@H](c2ccccc2)C1` (stereo partly drawn) [Compound 545, ((2-(((2S)-1-((3S)-7-(2-((10-(2-(2,6-dioxopiperidin-3-yl)-1,3-dioxoisoindolin-4-yl)dec-9-yn-1-yl)amino)-2-oxoethoxy)-3-((R)-2-phenylmorpholine-4-carbonyl)-3,4-dihydroisoquinolin-2(1H)-yl)-3,3-dimethyl-1-oxobutan-2-yl)carbamoyl)benzo[b]thiophen-5-yl)difluoromethyl)phosphonic acid], for which the DC50 was more than 10 µM.

As to `CC(C)(C)[C@H](NC(=O)c1cc2cc(C(F)(F)P(=O)(O)O)ccc2s1)C(=O)N1Cc2cc(OCC(=O)NCCCCCCCCCC#Cc3cccc4c3C(=O)N(C3CCC(=O)NC3=O)C4=O)ccc2C[C@H]1C(=O)N1CCO[C@H](c2ccccc2)C1` (stereo partly drawn) [Compound 547, ((2-(((2S)-1-((3S)-7-(2-((11-(2-(2,6-dioxopiperidin-3-yl)-1,3-dioxoisoindolin-4-yl)undec-10-yn-1-yl)amino)-2-oxoethoxy)-3-((R)-2-phenylmorpholine-4-carbonyl)-3,4-dihydroisoquinolin-2(1H)-yl)-3,3-dimethyl-1-oxobutan-2-yl)carbamoyl)benzo[b]thiophen-5-yl)difluoromethyl)phosphonic acid], the DC50 is more than 10 µM.

Turning to `CC(C)(C)[C@H](NC(=O)c1cc2cc(C(F)(F)P(=O)(O)O)ccc2s1)C(=O)N1Cc2cc(OCC(=O)NCCCCCCCCCC#Cc3ccc4c(c3)C(=O)N(C3CCC(=O)NC3=O)C4=O)ccc2C[C@H]1C(=O)N1CCO[C@H](c2ccccc2)C1` (stereo partly drawn) [Compound 548, ((2-(((2S)-1-((3S)-7-(2-((11-(2-(2,6-dioxopiperidin-3-yl)-1,3-dioxoisoindolin-5-yl)undec-10-yn-1-yl)amino)-2-oxoethoxy)-3-((R)-2-phenylmorpholine-4-carbonyl)-3,4-dihydroisoquinolin-2(1H)-yl)-3,3-dimethyl-1-oxobutan-2-yl)carbamoyl)benzo[b]thiophen-5-yl)difluoromethyl)phosphonic acid], the DC50 was more than 10 µM.

For the compound `CC(C)(C)[C@H](NC(=O)c1cc2cc(C(F)(F)P(=O)(O)O)ccc2s1)C(=O)N1Cc2cc(OCC(=O)NCC#Cc3cccc4c3C(=O)N(C3CCC(=O)NC3=O)C4=O)ccc2C[C@H]1C(=O)N1CCC[C@H](c2ccccc2)C1` (stereo partly drawn) [Compound 549, ((2-(((2S)-1-((3S)-7-(2-((3-(2-(2,6-dioxopiperidin-3-yl)-1,3-dioxoisoindolin-4-yl)prop-2-yn-1-yl)amino)-2-oxoethoxy)-3-((R)-3-phenylpiperidine-1-carbonyl)-3,4-dihydroisoquinolin-2(1H)-yl)-3,3-dimethyl-1-oxobutan-2-yl)carbamoyl)benzo[b]thiophen-5-yl)difluoromethyl)phosphonic acid], the 50% degradation concentration (DC50) is more than 10 µM.
